Each structure is given as a SMILES string.

In assay [1] the test system is U937 cells. The assay can be described thus: EC50 of necroptosis inhibition in U937 cells (TSZ-induced, CellTiter-Glo). The format is cell-based. Particulars: Homo sapiens, U-937; TSZ (hTNF-α, SM-164, Z-VAD-FMK) 20 hours; 10 concentration points; read-out: EC50 intervals of necroptosis inhibition in U937 cells. A digest of the protocol: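 U937 cells pretreated 15 min with compound (10-point, 1:3 series), then necroptosis induced by TSZ (hTNF-α, SM-164, Z-VAD-FMK) for 20 h at 37 °C. Viability measured as ATP by CellTiter-Glo luminescence; inhibition normalised to untreated and TSZ-only wells, EC50 from four-parameter fit.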
In general terms: Cellular ATP, detected with luciferase, serves as a proxy for viable cell number.

The test system of assay [2] is U937 cells. The assay can be described thus: Inhibition rate of compound (1 μM) on necroptosis of U937 cells (TSZ-induced, CellTiter-Glo). The format is cell-based. As to conditions: TSZ (hTNF-α, SM-164, Z-VAD-FMK) 20 hours. A digest of the protocol:
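U937 cells were pretreated 15 min with compound, then necroptosis was triggered with TSZ (Z-VAD-FMK, hTNF-α, SM-164) for 20 h at 37° C. Viability was read as ATP by CellTiter-Glo luminescence, and inhibition (%) was taken relative to no-TSZ and TSZ-only wells.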

`CN1C(=O)[C@@H](NC(=O)C(=O)NCc2ccc(F)cc2)COc2ccc(C#CCCO)cc21` [Example 40, (S)—N^1-(4-fluorobenzyl)-N^2-(7-(4-hydroxybut-1-yn-1-yl)-5-methyl-4-oxo-2,3,4,5-tetrahydrobenzo[b][1,4]oxazepin-3-yl)oxalamide]: the EC50 (usually the concentration that produces a half-maximal response) in the assay on U937 cells [1] was less than 100 nM. Moreover, in the assay on U937 cells [2], the “Inhibition rate range of compounds (1 μM) on U937 cell necroptosis” value (shortened to “Inhibition rate range of compounds”) was “A (A: ≥90%)”.
As for `CN1C(=O)[C@@H](NC(=O)C(=O)NCCc2cccc(F)c2)COc2ccc(C#CC(C)(C)O)cc21` [Example 42, (S)—N^1-(3-fluorophenethyl)-N^2-(7-(3-hydroxy-3-methylbut-1-yn-1-yl)-5-methyl-4-oxo-2,3,4,5-tetrahydrobenzo[b][1,4]oxazepin-3-yl)oxalamide], the EC50 in the assay with U937 cells [1] was less than 100 nM. For the same molecule, the “Inhibition rate range of compounds” value with U937 cells [2] is “A (A: ≥90%)”.
In the same order, the values of `CN1C(=O)[C@@H](NC(=O)C(=O)NCCc2ccccc2)COc2ccc(C#CC3(O)COC3)cc21` [Example 43, (S)—N^1-(7-((3-hydroxyoxetan-3-yl)ethynyl)-5-methyl-4-oxo-2,3,4,5-tetrahydrobenzo[b][1,4]oxazepin-3-yl)-N^2-phenethyloxalamide] are less than 100 nM and “A (A: ≥90%)”.
As for `CN1C(=O)[C@@H](NC(=O)C(=O)NCCc2ccccc2)COc2ccc(C#CC3(O)CCCCC3)cc21` [Example 44, (S)—N^1-(7-((1-hydroxycyclohexyl)ethynyl)-5-methyl-4-oxo-2,3,4,5-tetrahydrobenzo[b][1,4]oxazepin-3-yl)-N^2-phenethyloxalamide], the EC50 in the assay on U937 cells [1] was less than 100 nM. Also, the “Inhibition rate range of compounds” value in the assay on U937 cells [2] was “A (A: ≥90%)”.
As to `C/C(C#Cc1ccc2c(c1)N(C)C(=O)[C@@H](NC(=O)C(=O)NCCc1ccccc1)CO2)=C/CO` [Example 45, (S,Z)-N^1-(7-(5-hydroxy-3-methylpent-3-en-1-yn-1-yl)-5-methyl-4-oxo-2,3,4,5-tetrahydrobenzo[b][1,4]oxazepin-3-yl)-N^2-phenethyloxalamide], in the assay with U937 cells [1], the EC50 is less than 100 nM. Further, in the assay with U937 cells [2], the “Inhibition rate range of compounds” value is “A (A: ≥90%)”.
For `CN1C(=O)[C@@H](NC(=O)C(=O)NCCc2ccccc2)COc2ccc(C#CCN3CCC(O)C3)cc21` (stereo partly drawn) [Example 46, N^1-((3S)-7-(3-(3-hydroxypyrrolidin-1-yl)prop-1-yn-1-yl)-5-methyl-4-oxo-2,3,4,5-tetrahydrobenzo[b][1,4]oxazepin-3-yl)-N^2-phenethyloxalamide], the EC50 in the assay with U937 cells [1] is less than 100 nM. The “Inhibition rate range of compounds” value in the assay on U937 cells [2] was “A (A: ≥90%)”.
In the same order, the values of `CN1C(=O)[C@@H](NC(=O)C(=O)NCCc2ccccc2)COc2ccc(C#CCN3CCC(=O)CC3)cc21` [Example 47, (S)—N^1-(5-methyl-4-oxo-7-(3-(4-oxopiperidin-1-yl)prop-1-yn-1-yl)-2,3,4,5-tetrahydrobenzo[b][1,4]oxazepin-3-yl)-N^2-phenethyloxalamide] are less than 100 nM and “A (A: ≥90%)”.
Turning to `CN1C(=O)[C@@H](NC(=O)C(=O)NCCc2ccccc2)COc2ccc(C#CCN3CCOCC3)cc21` [Example 48, (S)—N^1-(5-methyl-7-(3-morpholinoprop-1-yn-1-yl)-4-oxo-2,3,4,5-tetrahydrobenzo[b][1,4]oxazepin-3-yl)-N^2-phenethyloxalamide], the EC50 with U937 cells [1] was less than 100 nM. Besides, the “Inhibition rate range of compounds” value with U937 cells [2] is reported as “A (A: ≥90%)”.
For `CN1C(=O)[C@@H](NC(=O)C(=O)NCCc2ccccc2)COc2ccc(C#CCCN)cc21` [Example 50, (S)—N^1-(7-(4-aminobut-1-yn-1-yl)-5-methyl-4-oxo-2,3,4,5-tetrahydrobenzo[b][1,4]oxazepin-3-yl)-N^2-phenethyloxalamide], the EC50 with U937 cells [1] is less than 100 nM. Further, the “Inhibition rate range of compounds” value with U937 cells [2] is on record as “A (A: ≥90%)”.

(Values after patent US20250368633A1, “AZEPINE FUSED RING COMPOUND AS RIPK1 INHIBITOR AND USE THEREOF” (ARTIVILA BIOPHARMA, priority 2022, published 2025).)
